{
  "source": "patent US8309718B2",
  "about": "“4-pyrazolyl-N-arylpyrimidin-2-amines and 4-pyrazolyl-N-heteroarylpyrimidin-2-amines as janus kinase inhibitors” (Incyte Corporation, priority 2007, dated 2012)",
  "data": [
    {"target": "T1, human JAK2 (Homo sapiens, UniProt O60674)", "T1 construct": "JAK2 (a.a. 828-1132); His tag (N); made in house; host or cells: insect cells (baculovirus)", "T1 sequence (O60674 828-1132)": "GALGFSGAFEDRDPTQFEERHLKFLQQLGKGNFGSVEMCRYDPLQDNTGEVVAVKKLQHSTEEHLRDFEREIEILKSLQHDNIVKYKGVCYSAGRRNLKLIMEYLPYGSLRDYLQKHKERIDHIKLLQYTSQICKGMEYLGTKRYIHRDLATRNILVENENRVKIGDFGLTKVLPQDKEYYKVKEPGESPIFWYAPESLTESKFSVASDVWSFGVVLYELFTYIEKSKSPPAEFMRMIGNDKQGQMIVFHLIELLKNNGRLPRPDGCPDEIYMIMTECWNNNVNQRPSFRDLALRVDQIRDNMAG", "experiment": "In vitro JAK kinase assay (HTRF, phosphorylation of biotinylated peptide)", "type": "biochemical", "settings": "catalytic domain a.a. 828-1132, 30 μM ATP, 500 nM peptide, room temperature 1 hr; read-out: JAK-2 IC50", "how_it_was_run": "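His-tagged human JAK2 catalytic domain (a.a. 828-1132), baculovirus/insect-cell expressed; phosphorylation of 500 nM biotinylated peptide at 30 μM ATP in 50 mM Tris pH 7.8, 100 mM NaCl, 5 mM DTT, 0.01% BSA. 1 h at room temperature, EDTA stop, HTRF read (Eu-Py20/SA-APC); IC50.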", "units": {"IC50": "nM"}, "values": [
      {"smiles": "CN(C(=O)c1ccc(Nc2nccc(-c3cnn(C(CC#N)C4CCCC4)c3)n2)cc1)[C@H]1CC[C@@H](O)CC1", "note": "(mixture of isomers) [Example 217, 4-(4-(1-(2-cyano-1-cyclopentylethyl)-1H-pyrazol-4-yl)pyrimidin-2-ylamino)-N-(cis-4-hydroxycyclohexyl)-N-methylbenzamide]", "IC50": "< 100"},
      {"smiles": "CN(C(=O)c1ccc(Nc2nccc(-c3cnn(C(CC#N)C4CCCC4)c3)n2)cc1)C1CCOCC1", "note": "(racemic) [Example 218, 4-(4-(1-(2-cyano-1-cyclopentylethyl)-1H-pyrazol-4-yl)pyrimidin-2-ylamino)-N-methyl-N-(tetrahydro-2H-pyran-4-yl)benzamide]", "IC50": "< 100"},
      {"smiles": "COC1CCN(C(=O)c2ccc(Nc3nccc(-c4cnn(C(CC#N)C5CCCC5)c4)n3)cc2)CC1", "note": "(racemic) [Example 221, 3-cyclopentyl-3-(4-(2-(4-(4-methoxypiperidine-1-carbonyl)phenylamino)pyrimidin-4-yl)-1H-pyrazol-1-yl)propanenitrile]", "IC50": "< 100"},
      {"smiles": "N#CCC(C1CCCC1)n1cc(-c2ccnc(Nc3ccc(C(=O)N[C@H]4CC[C@@H](O)CC4)cc3)n2)cn1", "note": "(mixture of isomers) [Example 223, 4-(4-(1-(2-cyano-1-cyclopentylethyl)-1H-pyrazol-4-yl)pyrimidin-2-ylamino)-N-(cis-4-hydroxycyclohexyl)benzamide]", "IC50": "< 100"},
      {"smiles": "CC(=O)N1CCN(C(=O)c2ccc(Nc3nccc(-c4cnn(C(CC#N)C5CCCC5)c4)n3)cc2)CC1", "note": "(racemic) [Example 224, 3-(4-(2-(4-(4-acetylpiperazine-1-carbonyl)phenylamino)pyrimidin-4-yl)-1H-pyrazol-1-yl)-3-cyclopentylpropanenitrile]", "IC50": "< 100"},
      {"smiles": "CN1CCC(NC(=O)c2ccc(Nc3nccc(-c4cnn(C(CC#N)C5CCCC5)c4)n3)cc2)CC1", "note": "(racemic) [Example 227, 4-(4-(1-(2-cyano-1-cyclopentylethyl)-1H-pyrazol-4-yl)pyrimidin-2-ylamino)-N-(1-methylpiperidin-4-yl)benzamide]", "IC50": "< 100"},
      {"smiles": "N#CCC(C1CCCC1)n1cc(-c2ccnc(Nc3ccc(C(=O)N4CCC5(CC4)CNC(=O)C5)cc3)n2)cn1", "note": "(racemic) [Example 228, 3-cyclopentyl-3-(4-(2-(4-(3-oxo-2,8-diazaspiro[4.5]decane-8-carbonyl)phenylamino)pyrimidin-4-yl)-1H-pyrazol-1-yl)propanenitrile]", "IC50": "< 100"},
      {"smiles": "CCOC(=O)N1CCC(NC(=O)c2ccc(Nc3nccc(-c4cnn(C(CC#N)C5CCCC5)c4)n3)cc2)CC1", "note": "(racemic) [Example 231, Ethyl 4-(4-(4-(1-(2-cyano-1-cyclopentylethyl)-1H-pyrazol-4-yl)pyrimidin-2-ylamino)benzamido)piperidine-1-carboxylate]", "IC50": "< 100"},
      {"smiles": "CN(C)C(=O)C1CCN(C(=O)c2ccc(Nc3nccc(-c4cnn(C(CC#N)C5CCCC5)c4)n3)cc2)CC1", "note": "(racemic) [Example 234, 1-(4-(4-(1-(2-cyano-1-cyclopentylethyl)-1H-pyrazol-4-yl)pyrimidin-2-ylamino)benzoyl)-N,N-dimethylpiperidine-4-carboxamide]", "IC50": "< 100"},
      {"smiles": "CN1CCN(CC(=O)Nc2cccc(Nc3nccc(-c4cnn(C(CC#N)C5CCCC5)c4)n3)c2)CC1", "note": "(racemic) [Example 236, N-(3-(4-(1-(2-cyano-1-cyclopentylethyl)-1H-pyrazol-4-yl)pyrimidin-2-ylamino)phenyl)-2-(4-methylpiperazin-1-yl)acetamide]", "IC50": "< 100"},
      {"smiles": "N#CCC(C1CCCC1)n1cc(-c2ccnc(Nc3cccc(NC(=O)CN4CCNC(=O)C4)c3)n2)cn1", "note": "(racemic) [Example 238, N-(3-(4-(1-(2-cyano-1-cyclopentylethyl)-1H-pyrazol-4-yl)pyrimidin-2-ylamino)phenyl)-2-(3-oxopiperazin-1-yl)acetamide]", "IC50": "< 100"},
      {"smiles": "N#CCC(C1CCCC1)n1cc(-c2ccnc(Nc3cccc(NC(=O)CN4CCC(O)CC4)c3)n2)cn1", "note": "(racemic) [Example 239, N-(3-(4-(1-(2-cyano-1-cyclopentylethyl)-1H-pyrazol-4-yl)pyrimidin-2-ylamino)phenyl)-2-(4-hydroxypiperidin-1-yl)acetamide]", "IC50": "< 100"},
      {"smiles": "N#CCC(C1CCCC1)n1cc(-c2ccnc(Nc3cccc(NC(=O)CN4CCN(CCO)CC4)c3)n2)cn1", "note": "(racemic) [Example 240, N-(3-(4-(1-(2-cyano-1-cyclopentylethyl)-1H-pyrazol-4-yl)pyrimidin-2-ylamino)phenyl)-2-(4-(2-hydroxyethyl)piperazin-1-yl)acetamide]", "IC50": "< 100"},
      {"smiles": "N#CCC(C1CCCC1)n1cc(-c2ccnc(Nc3cccc(NC(=O)CNCC4CC4)c3)n2)cn1", "note": "(racemic) [Example 241, N-(3-(4-(1-(2-cyano-1-cyclopentylethyl)-1H-pyrazol-4-yl)pyrimidin-2-ylamino)phenyl)-2-(cyclopropylmethylamino)acetamide]", "IC50": "< 100"},
      {"smiles": "N#CCC(C1CCCC1)n1cc(-c2ccnc(Nc3cccc(NC(=O)CN4CCOCC4)c3)n2)cn1", "note": "(racemic) [Example 242, N-(3-(4-(1-(2-cyano-1-cyclopentylethyl)-1H-pyrazol-4-yl)pyrimidin-2-ylamino)phenyl)-2-morpholinoacetamide]", "IC50": "< 100"},
      {"smiles": "CCNCC(=O)Nc1cccc(Nc2nccc(-c3cnn(C(CC#N)C4CCCC4)c3)n2)c1", "note": "(racemic) [Example 243, N-(3-(4-(1-(2-cyano-1-cyclopentylethyl)-1H-pyrazol-4-yl)pyrimidin-2-ylamino)phenyl)-2-(ethylamino)acetamide]", "IC50": "< 100"},
      {"smiles": "N#CCC(C1CC1)n1cc(-c2ccnc(Nc3ccc(C(=O)N4CCC(O)CC4)cc3)n2)cn1", "note": "(racemic) [Example 251, 3-cyclopropyl-3-(4-(2-(4-(4-hydroxypiperidine-1-carbonyl)phenylamino)pyrimidin-4-yl)-1H-pyrazol-1-yl)propanenitrile]", "IC50": "< 100"},
      {"smiles": "N#CCC(C1CC1)n1cc(-c2ccnc(Nc3ccc(C(=O)N4[C@@H]5CC[C@H]4C[C@@H](O)C5)cc3)n2)cn1", "note": "(mixture of isomers) [Example 252, 3-cyclopropyl-3-(4-(2-(4-((3-endo)-3-hydroxy-8-azabicyclo[3.2.1]octane-8-carbonyl)phenylamino)pyrimidin-4-yl)-1H-pyrazol-1-yl)propanenitrile]", "IC50": "< 100"},
      {"smiles": "N#CCC(C1CC1)n1cc(-c2ccnc(Nc3ccc(C(=O)N4CCCC4)cc3)n2)cn1", "note": "(racemic) [Example 253, 3-cyclopropyl-3-(4-(2-(4-(pyrrolidine-1-carbonyl)phenylamino)pyrimidin-4-yl)-1H-pyrazol-1-yl)propanenitrile]", "IC50": "< 100"},
      {"smiles": "N#CCC(C1CC1)n1cc(-c2ccnc(Nc3ccc(C(=O)NC4CCOCC4)cc3)n2)cn1", "note": "(racemic) [Example 254, 4-(4-(1-(2-cyano-1-cyclopropylethyl)-1H-pyrazol-4-yl)pyrimidin-2-ylamino)-N-(tetrahydro-2H-pyran-4-yl)benzamide]", "IC50": "< 100"},
      {"smiles": "N#CCC(C1CC1)n1cc(-c2ccnc(Nc3ccc(C(=O)N4CCOCC4)cc3)n2)cn1", "note": "(racemic) [Example 260, 3-cyclopropyl-3-(4-(2-(4-(morpholine-4-carbonyl)phenylamino)pyrimidin-4-yl)-1H-pyrazol-1-yl)propanenitrile]", "IC50": "< 100"},
      {"smiles": "N#CCC(C1CC1)n1cc(-c2ccnc(Nc3ccc(C(=O)N4CCC4)cc3)n2)cn1", "note": "(racemic) [Example 261, 3-(4-(2-(4-(azetidine-1-carbonyl)phenylamino)pyrimidin-4-yl)-1H-pyrazol-1-yl)-3-cyclopropylpropanenitrile]", "IC50": "< 100"}
    ]}
  ]
}
